Measurements from US20110098177A1, “METHODS AND COMPOSITIONS OF PLANT MICRONUTRIENTS” (NOVUS INTERNATIONAL INC., priority 2006, published 2011).
Where two headings read alike, the source gives them in different places.

How the values were obtained:
Type in all cases: in vivo
Tygress tomato plants [1] = assay: Foliar nutrient concentration at 6 WAT, open-field tomato (Examples 7-10); conditions: in vivo
Method: The following experiments were performed in open-field plots during the spring of 2008 at GCREC, Balm, University of Florida. Four products delivering Zn (BIOX-Z), Mn (BIOX-M), Cu (BIOX-Cu), and Fe (BIOX-Fe) were compared to other micronutrient supplement formulations in tomato and bell pepper plants.
The plot sizes for the tomato plants were 30-ft plots (15 plants per plot) and 15-ft plots were used for the bell pepper plants (30 plants per plot). Crop set-up, procedures and variables were as follows.
Transplants of ‘Tygress’ tomato plants and ‘Patriot’ bell pepper plants in the 4-true leaf stage (about 6 inches tall) were planted in raised beds in open-field plots. The cross-section of each raised bed was 28 inches wide at the top, 32 inches wide at the base, and 8 inches tall. Irrigation and non-micronutrient fertilizer were provided daily through two drip lines per bed (0.45 gal/100 ft bed/min) at recommended rates for tomato and bell pepper production in Florida. […] The height of the plants for each of the treatment groups was measured at 3 weeks after transplantation (WAT), just prior to treatment with the experimental foliar fertilizers.
All foliar fertilizers except BIOX-CM were applied to the various treatment groups at 3 weeks after transplantation (WAT) and again at 5 WAT. The BIOX-CM treatment was applied at 4 and 5 WAT. The working water volume was 60 gal/acre and a non-ionic surfactant (Ad-Spray 80) was added in the amount of 2 pints/100 gal water. All plots were sprayed with sprayers pressurized at 25 psi and the canopies of both crops were covered with the micronutrient solutions. Treated plots were isolated during foliar fertilizer application to avoid the cross-contamination of other treatments on adjoining plots.
Leaf samples were collected from the most recent mature leaves from each plant at 6 WAT (2 weeks after initial treatment). Foliar tissue analysis was performed by a commercial laboratory to determine the concentration of N, P, K, Mg, Ca, B, Zn, Mn, Fe, and Cu. Tomato marketable fruit weights were collected at 10 and 12 WAT, and the fruits were graded according to USDA standards. Pepper marketable fruit weights were determined beginning at 5 WAT over 5 weekly harvests. Fruit mineral analysis (N, P, K, Mg, Ca, B, Zn, Mn, Fe, and Cu) was performed on samples from the tomato harvest.
The experimental design was a randomized complete block design with 5 replications for each treatment. All comparison data were analyzed using a general linear model and the means of each treatment were separated with a Fisher's protected LSD test at the 5% significance level.

Florida-47 tomato = system: Florida-47 tomato
Method: (§1) The following experiments were performed in a green house during the fall of 2007 at GCREC, Balm, University of Florida. Fifteen products, at 3 different application rates were examined. The plot size was 2-gallon pots. Crop set-up, procedures and variables were as follows.
(§2) Transplants of ‘Florida-47’ tomato and ‘Aristotle’ bell pepper plants in the 4-true leaf stage (about 6 inches tall) were planted in 2-gal pots on Aug. 27, 2007. Pots were filled with a commercially available planting medium. This medium was selected based on the mineral composition of the products to be applied without providing significant nutritional inputs to the crops. Irrigation was provided with drip lines delivering between 0.50 and 0.33 gal/day/pot for tomato and bell pepper, respectively, and the crops were irrigated three times per day. No foliar pesticides were necessary.
(§3) There were four control treatments corresponding to each target micronutrient in which non-Fe, non-Mn, non-Zn or non-Cu pots received all other essential nutrients under non-limiting conditions.
(§4) Treatments were applied at three rates (high, medium and low) obtained from the estimated concentration of Zn, Fe, Cu, and Mn foliarly-applied in tomato and bell pepper in field situations (Table 1). Products were weighed and dissolved in 200 ml of deionized water with a non-ionic surfactant and applied to the newly-matured open leaves of each crop at 3 and 7 weeks after transplant (WAT). Treated pots were isolated during application to avoid cross-contamination of other treatments.
(§5) Medium nutrient concentration was determined 1 week before treatment. The mineral composition of the medium was 26.8 ppm NH4—N, 49 ppm NO3—N, 15.8 ppm P, 91.2 ppm K, 82.3 ppm Ca, 58.2 ppm Mg, 23.9 ppm Na, 125.6 ppm S, 1.33 ppm Fe, 0.39 ppm Mn, 0.35 ppm Zn, 0.05 pp, Cu, 0.04 ppm B, 0 ppm Mo, 0.73 ppm Al, and 12.1 ppm Si. The pH of the medium was 5.36 and the electric conductivity was 1.38 mS/cm. The foliar tissue analysis was performed at 6 WAT and the concentration of N, P, K, Mg, Ca, S, B, Zn, Mn, Fe, and Cu was determined by a commercial laboratory. Plant toxicity was determined at 4 WAT by using a 0-10 visual scale, where 0=no visible damage and 10=total plant death. Marketable fruit weight was collected 2 times in bell pepper and 4 times in tomato following USDA standards.
(§6) Data were analyzed using a general linear model, and means were separated using orthogonal contrasts at the 5% significance level.

Aristotle bell pepper = system: Aristotle bell pepper
Method: as §1, §2, §3, §4, §5, §6

Tygress tomato plants [2] = assay: Foliar nutrient concentration at 7 WAT, greenhouse tomato spring 2009 (Examples 13-15)
Method: (§7) The following experiments were performed in a green house during the spring of 2009 at GCREC, Balm, University of Florida. Crop set-up, procedures and variables were as follows.
(§8) Transplants of ‘Tygress’ tomato plants were planted in 2-gallon pots filled with commercial planting medium with nutrient concentration of Fe, Zn, Mn, Cu being negligible and insufficient for crop growth. Irrigation and non-micronutrient fertilizer were provided daily through microsprinklers at recommended rates for tomato production in Florida. No pesticides were used. Treatments were as described in Tables 42, 43, and 44 below. BIOX-Cu was compared to Cu-sulfate, BIOX-EDC, and BIOX-O; and BIOX-Fe was compared to Fe-sulfate and BIOX-EDF. BIOX-MEZ is Ca-HMTBA.
(§9) Treatments were applied at 6 WAT (weeks after transplanting) using a water volume of 200 mL/plant. Deionized water was used for foliar applications. A non-ionic surfactant was added. Other nutrients were applied as appropriate under non-limiting conditions.
Foliar tissue nutrient analysis was performed at 3 WAT (i.e., 3 weeks before treatment) and 7 WAT (i.e., 1 weeks after treatment) on the non-applied newest leaves. The concentrations of N, P, K, Mg, Ca, B, Zn, Mn, Fe, and Cu in the foliar tissue were determined by a commercial laboratory. There were no significant differences between the foliar nutrient concentrations of any of the treatment groups prior to treatment.
(§10) Experimental design was a randomized complete block design with 6 replications. Data were analyzed using a general linear model, and means were separated using an LSD test at the 5% significance level.

Tygress tomato plants [3] = conditions: for Toxicity (0-10): 0=no injury, 10=plant death
Method: as §7, §8, §9
Toxicity of the treatments was assessed by rating foliar tissue using a visual scale, where 0=no injury and 10=plant death.
as §10

Tygress tomato plants [4] = assay: Yields of tomato fruits, greenhouse spring 2009 (Examples 13-15)
Method: as §7, §8, §9
Marketable fruit were collected three times during the growing season, starting at 10 WAT (4 weeks after the initial treatment). Tomato fruit was graded as marketable and non-marketable. Marketable fruit was sized as extra-large, large, and medium. Non-marketable fruit were harvested and number and weight recorded but not sized.
as §10

[5] = BIOX-Cu at 0.46 and 0.55 lb/acre, Cu-sulfate at 0.8 lb/acre, BIOX-EDC at 0.4 lb/acre
[6] = High rate, 1 week after treatment, scale 0 = no visible injury, 10 = plant death
[7] = Low rate, 1 week after treatment, scale 0 = no visible injury, 10 = plant death
[8] = Medium rate, 1 week after treatment, scale 0 = no visible injury, 10 = plant death
[9] = tomato and bell pepper plants stated together, Fall 2007 greenhouse

Compound: NCC(=O)[O-].NCC(=O)[O-].[Cu+2] [BIOX-GC, copper glycinate]
- Foliar Zn concentration of tomato plants, statement (Tygress tomato plants [1]): slightly higher foliar Zn concentration
- Foliar injury (in words) (Florida-47 tomato; in vivo): from light leaf speckling to severe necrosis and plant decay
- Tomato toxicity (Florida-47 tomato; in vivo): 7
- Toxicity scale score (Florida-47 tomato; in vivo): 7
- Pepper toxicity (Aristotle bell pepper; in vivo): 7

Compound: O=S(=O)([O-])[O-].[Fe+2] [BIOX-INI, ferrous sulfate]
- Foliar Fe concentration in tomato leaves, statement (Tygress tomato plants [2]; 7 WAT (1 week after treatment)): highest Fe concentrations
- Toxicity relative to the non-treated control, statement (Tygress tomato plants [3]; all levels of BIOX-Fe, Fe-sulfate at 2.0 lb/acre, BIOX-EDF at 0.3 lb/acre): increased toxicity
- Foliar injury (in words) (Florida-47 tomato; in vivo): from light leaf speckling to severe necrosis and plant decay
- Tomato toxicity (Florida-47 tomato; in vivo): 7
- Toxicity scale scores (Florida-47 tomato; in vivo): 7-9
- Pepper toxicity (Aristotle bell pepper; in vivo): 7
- Marketable tomato yields compared to non-treated control, statement (Tygress tomato plants [4]; BIOX-Fe at all levels, Fe-sulfate at 2.0 lb/acre, BIOX-EDF at 0.3 lb/acre): decreased marketable yields relative to the non-treated control

Compound: O=S(=O)([O-])[O-].[Cu+2] [Cu sulfate]
- Foliar Cu concentration (Tygress tomato plants [2]; Cu 0.8 lb/acre, tomato leaves 1 week after treatment): 986 ppm
- Toxicity (0-10) (Tygress tomato plants [3]; Cu 0.8 lb/acre): 6
- Marketable yield (Tygress tomato plants [4]; Cu 0.8 lb/acre): 1200 b g/plant

Compound: O=S(=O)([O-])[O-].[Fe+2] [Fe sulfate]
- Foliar Fe concentration (Tygress tomato plants [2]; Fe 2.0 lb/acre, tomato leaves 1 week after treatment): 888 ppm
- Toxicity (0-10) (Tygress tomato plants [3]; Fe 2.0 lb/acre): 5
- Marketable yield (Tygress tomato plants [4]; Fe 2.0 lb/acre): 1100 g/plant

Compound: EDTA chelated copper [BIOX-EDC]
- Copper concentrations in tomato leaves, statement (Tygress tomato plants [2]; 7 WAT (1 week after treatment)): highest leaf copper concentrations
- Foliar Cu concentration (Tygress tomato plants [2]; Cu 0.4 lb/acre, tomato leaves 1 week after treatment): 678 ppm
- Toxicity compared to non-treated control plants, statement (Tygress tomato plants [3]; [5]): increased levels of toxicity
- Toxicity (0-10) (Tygress tomato plants [3]; Cu 0.4 lb/acre): 6
- Tomato toxicity (Florida-47 tomato; [6]): 8
- Tomato toxicity (Florida-47 tomato; [7]): 8
- Tomato toxicity (Florida-47 tomato; [8]): 8
- Toxicity scale score (Florida-47 tomato; comparable ranges of copper concentrations (0.004% to 0.061% by weight), scale 0-10, both crops): 8
- Foliar injury (in words) (Florida-47 tomato; [9]): from light leaf speckling to severe necrosis and plant decay
- Pepper toxicity (Aristotle bell pepper; [6]): 8
- Pepper toxicity (Aristotle bell pepper; [7]): 8
- Pepper toxicity (Aristotle bell pepper; [8]): 8
- Marketable tomato yields compared to non-treated control, statement (Tygress tomato plants [4]; [5]): did not alter marketable yields relative to the non-treated control
- Marketable yield (Tygress tomato plants [4]; Cu 0.4 lb/acre): 1550 b g/plant

Compound: EDTA chelated iron [BIOX-EDI]
- Tomato toxicity (Florida-47 tomato; [6]): 8
- Tomato toxicity (Florida-47 tomato; [7]): 8
- Tomato toxicity (Florida-47 tomato; [8]): 8
- Foliar injury (in words) (Florida-47 tomato; [9]): from light leaf speckling to severe necrosis and plant decay
- Pepper toxicity (Aristotle bell pepper; [6]): 9
- Pepper toxicity (Aristotle bell pepper; [7]): 9
- Pepper toxicity (Aristotle bell pepper; [8]): 9

Compound: manganese glycinate [BIOX-GM]
- Tomato toxicity (Florida-47 tomato; [6]): 7
- Tomato toxicity (Florida-47 tomato; [7]): 7
- Tomato toxicity (Florida-47 tomato; [8]): 7
- Toxicity scale score (Florida-47 tomato; similar manganese concentrations (0.015% to 0.124% by weight), scale 0-10, both crops): 7
- Foliar injury (in words) (Florida-47 tomato; [9]): from light leaf speckling to severe necrosis and plant decay
- Pepper toxicity (Aristotle bell pepper; [6]): 7
- Pepper toxicity (Aristotle bell pepper; [7]): 7
- Pepper toxicity (Aristotle bell pepper; [8]): 7
